For assay [1], the system named is DNCB-induced atopic dermatitis NC/Nga mouse. As to the kind of experiment: DNCB-induced atopic dermatitis in the NC/Nga mouse model. The class given is in vivo. The method, then:
Atopic dermatitis was induced by repeated application of DNCB (1-chloro-2,4-dinitrobenzene) to the dorsal skin of the ears/back. […] Lesions were evaluated on days 2, 8, 11, and 14.
Macroscopic lesion severity scores are depicted in FIG. 7. Macroscopic skin lesion severity was measured on the indicated Study Days by assessing (0-3 scale) the presence of erythema, edema, excoriation/erosion, and dryness scaling on the ears, neck, and dorsal skin of animals.
Serum IgE levels are depicted in FIG. 8. Serum samples obtained on Study Day 15 were utilized for IgE quantitation. Select cytokine data from the study are depicted in FIG. 9. Skin samples harvested on Day 15 were analyzed by LUMINEX for inflammatory cytokine levels for IL-4, IL-5, IL-13, and IL-31.

The test system of assay [2] is vitiligo mouse model. Kind of assay: Study DMVT-502-9025 mouse model of vitiligo. The class given is in vivo. The method, then: The model mimics human vitiligo by inducing epidermal depigmentation with autoreactive CD8+ T-cell accumulation. A schematic of the model is depicted in FIG. 15.
Ten mice were used in the study: three REX3 reporter mice for cytokines CXCL9 and CXCL10 and seven SCF (stem cell factor) mice. The vitiligo study timeline is depicted in FIG. 16. The following assessments were performed during the study:
Blinded scoring of ears, tail, nose, and ventral feet (0-5 scale)
Epidermal, dermal, spleen, and lymph node PMEL (premelanosome protein) cell count
Epidermal/dermal APC (antigen-presenting cell) count
Keratinocyte Cytokine Expression

Setting [3] is: 60 mg/kg once daily oral, 5 weeks.
The mark [4] stands for this setting: 30 and 60 mg/kg once daily oral, 5 weeks.

In the case of `CCS(=O)(=O)N1CCN(c2ccc(Nc3ncc(C(N)=O)c(NC4CC4)n3)cc2)CC1` [DMVT-502, Cerdulatinib], the “serum IgE levels” value in assay [1] (topical therapy, Study Day 15) is “trends towards reduction”. In addition, in assay [1] (topical treatment, Day 15, LUMINEX), the “pro-inflammatory cytokine levels in skin (IL-4, IL-5, IL-13, IL-31)” value was “limited suppression”. Besides, in assay [2] (setting [3]), the “APCs in the dermal skin compartment and Langerhans cells in the epidermal skin compartment compared with vehicle” value was “significantly reduced”; the “CD3+, CD8− T-cell counts in the spleen” value is reported as “significantly reduced”; the “PMEL T-cell counts in dermis and blood” value is listed as “significantly reduced”; the “host T-cell counts in blood” value is on record as “significantly decreased”. In addition, in assay [2] (setting [4]), the “APC counts in lymph nodes and the spleen compared with vehicle” value is “significantly reduced”; the “PMEL T-cell counts in the epidermis and dermis compared with vehicle” value is on record as “significantly reduced”; the “host-derived total T-cell counts in the spleen” value is listed as “significantly reduced”; the “vitiligo scores compared with vehicle controls” value is “significantly decreased”. The “lymph node or spleen PMEL T cells” value in assay [2] (30 or 60 mg/kg once daily oral, 5 weeks) is given as “no significant differences”. Moreover, the “CXCL9, CXCL10, and dual expression in keratinocytes compared with vehicle” value in assay [2] (SCF/REX3 mice) is “trends towards reduced”. Further, in assay [2] (once daily oral, 5 weeks), the “CXCL9 and CXCL10 expression in lymph node APCs” value was “Reduced”; the “total keratinocyte counts between treatment groups” value was “No decrease”.
